The values below come from US20060234390A1, “Process for determining target function and identifying drug leads” (priority 2002, published 2006).

The target of assay [1] is T1, P38 MAP kinase (Homo sapiens, UniProt Q16539).
T1 construct: purchased Sigma
The assay is described as follows: HPLC based Chemical Array binding assay (protein-bound vs free compounds, UV and mass spectrum). Particulars: for identity of the compound extracted from the mixture and released from the protein (mass spectrum): 5 uM P38 MAP kinase + 5 uM mixture of Quinine and 86002. The procedure: (§1) Drug-like chemical compounds representing a collection of drug-like chemical scaffolds (Sigma-Aldrich, ICN, Calbiochem) were weighed and mixed to a final concentration of 20 uM each in 50 mM ammonium acetate pH 7, 10% methanol. 1 uM to 20 uM tubulin or P38 MAP kinase (Sigma) were dispensed into HPLC low volume sample cuvettes (Waters) and mixed with 0.5 uM to 20 uM compounds. After mixing and a 15 minute 37° C. incubation, the cuvettes were placed on ice and injected into the HPLC (Waters 2690) using an autoinjector (Waters) onto a 150 mm×2.1 mm ID Pinkerton GFF II column (Regis Technologies) for dual size exclusion and phase separation with a 50 mM ammonium acetate, 10% methanol running buffer.
(§2) We optimized the column dimensions and the choice of resin to maximize the separation of the compounds bound to the protein targets from the unbound compounds. Resins which elute protein in the void volume and small column diameters and lengths which minimize the void volume were used. Such columns minimize the amount of dilution of the protein sample and minimize the time required for each assay, thereby minimizing the amount of bound compound that dissociates from the protein (as governed by the Koff rate). […] A number of HPLC columns, including the Regis 150 mm×2.1 mm GFF II column, a 1.0 mm×100 mm YMC Diol column, a 2.1 mm×150 mm Phenomonex Polyhydroxymethacrylate (Polysep) column, and a Jordi 2.1×150 mm Divinyl Benzene column, were tested. Similarly, other running buffers were tested in which the salt and methanol concentration were varied, and the ratio of protein target to small compounds in the binding reaction was varied from 1000:1 to 1:1000. Resins representative of different classes were tested for their ability to separate the protein fraction from the drug-like small molecule compounds, and to minimize the cycle time for all of the compounds to elute from the column. These characteristics of the columns are determined by surface properties and limitations on flow rates due to resins collapsing under backpressure. […] In applications where a longer cycle time (e.g., over 10 minutes per run) is acceptable, any of the above columns or a series of the above columns may be used.
(§3) For shorter cycle times, other columns may be used.

The test system of the next assay is tubulin. The assay is described as above. Particulars: tubulin 0, 5 and 20 uM; 10 compound mixture, 0.5 uM each; GFF II column. The procedure:
as §1, §2, §3

Assay [2] has as its target T1, P38 MAP kinase. Particulars: stated as a known property of the ligand; cited from earlier work.
[3] abbreviates: P38 0, 2.5, 5 and 10 uM, 86002 and quinine 5 uM each, Diol column.

Entries after “also recorded” stand apart in the source; their conditions may differ.

T1 sequence (Q16539 whole entry): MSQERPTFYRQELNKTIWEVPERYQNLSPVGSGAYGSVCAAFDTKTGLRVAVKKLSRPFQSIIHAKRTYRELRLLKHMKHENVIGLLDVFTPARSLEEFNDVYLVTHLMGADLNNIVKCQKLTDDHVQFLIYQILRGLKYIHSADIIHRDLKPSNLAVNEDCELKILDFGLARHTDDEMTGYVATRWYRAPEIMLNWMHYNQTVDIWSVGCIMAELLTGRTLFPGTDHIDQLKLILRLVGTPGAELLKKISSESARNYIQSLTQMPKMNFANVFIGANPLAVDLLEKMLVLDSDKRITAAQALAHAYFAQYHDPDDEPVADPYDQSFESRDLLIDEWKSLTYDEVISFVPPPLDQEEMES

`Fc1ccc(-c2nc3n(c2-c2ccncc2)CCS3)cc1` [SKB86002]: at P38 MAP kinase [1] (5 uM P38 MAP kinase + 5 uM 86002, Diol column), the “mass spectrum of the collected protein fraction compared with the standard” value is listed as “corresponded to the 86002 standard”. The “identity of the compound extracted from the mixture and released from the protein (mass spectrum)” value on P38 MAP kinase [1] is given as “identified as 86002”. Also, the “reduction of the free compound UV peak with increasing P38 MAP kinase” value on P38 MAP kinase [1] (setting [3]) is reported as “concentration dependant reduction”; at P38 MAP kinase [1] (P38 0, 3.5 and 5 uM, 10 compound mixture, 0.5 uM each, GFF II column) it was “concentration dependent reduction”. In addition, the “level of the characteristic peak in the mass spectrum of the protein fraction” value at P38 MAP kinase [1] (P38 2 uM, 100 compound mixture, 20 uM each, GFF II column) was “binds and extracts; also recorded: at a level far higher than other peaks”. Further, at P38 MAP kinase [1] (P38, 10 compound mixture, 0.5 uM each, GFF II column), the “level of the characteristic peaks in the mass spectrum of the protein fraction” value is “at a level far higher than other peaks”. Further, the “reduction of the free compound UV peak with increasing tubulin” value in the assay with tubulin is on record as “negligible reduction”. The “affinity for the P38 MAP kinase protein target” value on P38 MAP kinase [2] is on record as “micromolar affinity”.
As for `C=C[C@H]1CN2CC[C@H]1C[C@H]2[C@H](O)c1ccnc2ccc(OC)cc12.Cl` [quinine, quinine monohydrochloride], at P38 MAP kinase [1], the “identity of the compound extracted from the mixture and released from the protein (mass spectrum)” value was “not quinine”. For the same molecule, the “reduction of the free compound UV peak with increasing P38 MAP kinase” value at P38 MAP kinase [1] (setting [3]) is reported as “negligible reduction”.
